Tests used:
[1] = biological target: hERG (Homo sapiens (Human), UniProt Q12809); experiment: hERG-Channel Assay (Assay 3), whole-cell patch clamp; format: cell-based; settings: human, HEK293 cells stably transfected with hERG, pH 7.4; 10 μM, HEK293 cells transfected with hERG
Source text: hERG-Channel Assay (Assay 3)
HEK (human embryonic kidney) 293 cells were stably transfected with hERG cDNA.
Cells were superfused with a bath solution containing (mM): NaCl (137), KCl (4.0), MgCl2 (1.0), CaCl2 (1.8), Glucose (10), HEPES (10), pH 7.4 with NaOH. Patch pipettes were made from borosilicate glass tubing using a horizontal puller and filled with pipette solution containing (mM): K-aspartate (130), MgCl2 (5.0), EGTA (5.0), K2ATP (4.0), HEPES (10.0), pH 7.2 with KOH. Resistance of the microelectrodes was in the range between 2 and 5 MΩ.
Membrane currents were recorded using an EPC-10 patch clamp amplifier and PatchMaster software. hERG-mediated membrane currents were recorded at 35° C., using the whole-cell configuration of the patch-clamp technique. Transfected HEK293 cells were clamped at a holding potential of −60 mV and hERG-mediated inactivating tail currents were elicited using a pulse pattern with fixed amplitudes (activation/inactivation: 40 mV for 2000 ms; recovery: −120 mV for 2 ms; ramp to 40 mV in 2 ms; inactivating tail current: 40 mV for 50 ms) repeated at 15 s intervals. During each inter-pulse interval 4 pulses scaled down by a factor of 0.2 were recorded for a P/n leak subtraction procedure. Rs compensation was employed up to a level that safely allowed recording devoid of ringing.
The different concentrations of the test compound were applied sequentially on each of the different cells investigated. A steady state level of baseline current was measured for at least 6 sweeps prior to the application of the first test compound concentration.
The test compound was dissolved in DMSO to yield a master stock solution which was diluted further in DMSO to stock solutions needed for the lower concentrations. Final dilutions in extracellular buffer were prepared freshly from these stocks by a 1:1000 dilution step each before starting the experiments.
Peak current amplitudes were measured 3 ms after the ramp to +40 mV. For baseline and each concentration the peak currents of the three last sweeps before application of the next concentration were averaged. Residual currents (I/I0) were calculated for each cell as the fraction of actual average peak current and average baseline peak current. Results are presented as percent (%) inhibition (1−I/I0)*100% at 10 μM.

[2] = system: production of Abeta1-x peptides in H4 neuroglioma cell line stably expressing human APP; experiment: H4-APPwt Cell-Based Assay (Assay 2), Abeta1-x production; settings: H4 neuroglioma cells expressing human APP, Abeta1-x; read-out: H4-APPwt cell IC50 nM (assay 2)
Description: H4-APPwt Cell-Based Assay (Assay 2)
Cellular potency of the compounds of the invention was assessed in an assay monitoring production of Abeta1-x peptides in the H4 neuroglioma cell line (ATCC, Cat. #HTB-148) stably expressing human APP, using an immunoassay such as AlphaLISA (PerkinElmer, Cat.# AL288). Tested compounds were dissolved in DMSO and pre-diluted in the culture medium (DMEM containing 10% FBS and 1% penicillin/streptomycin) to achieve twice the final concentration of the compounds in the assay. Equal volumes of the 2× solutions of the tested compounds and cell suspension were added to a 96-well culture plate, so that each well contained ˜10,000 cells in a final volume of 200 μl. Final concentration of DMSO in the assay was 0.2%. The plates were incubated for 5 hrs at 37° C., 5% CO2 to allow cells to attach to the bottom of the wells in the presence of the tested compounds. Then the media was removed and replaced with fresh media containing tested compounds at the same final concentration. The plates were incubated for 18 hrs at 37° C., 5% CO2. Concentrations of Ab1-x were determined using AlphaLISA immunoassay (PerkinElmer, Cat.# AL288) following manufacturer's protocol. Concentrations of Abeta1-x in the wells containing either DMSO or 10 μM beta-secretase inhibitor (BACE inhibitor IV, EMD Bioscience, Cat. #565788) were used as uninhibited and background controls, correspondingly, for calculating percent inhibition values for each well with the tested compounds.

[3] = In Vitro Phospholipidosis Assay (Assay 4), Nile red staining; format: cell-based; settings: human, first effect concentration, U937 cells, read-out: Phospholipidosis FEC IC50 μM (assay 4)
Description: In Vitro Phospholipidosis Assay (Assay 4)
The phospholipidogenic potential of test compounds was assayed using the human hematopoetic U937 cell line. The test principle was to analyze the phospholipid content by staining the cells with the fluorescent dye Nile red.
U937 cells were seeded into cell culture plates at 0.5×10^6 cells/mL in RPMI medium containing 10% FBS, 1% DMSO, and 0.005% gentamicin. The cells were then cultivated with or without different concentrations of test compounds for 48 h under standard culture conditions.
For harvesting the cells were centrifuged at 130×g for 4 min and washed once with PBS. Then 2×0.5 mL cell suspension was prepared for non-fixed cell measurement (0.5 mL for propidium iodide (PI) viability measurement and 0.5 mL for Nile red measurement).
The remaining cells were fixed with 3.7% formaldehyde for 30 min. After a further centrifugation step cells were resuspended with 1.3 mL Nile red working solution (1 μg/mL) and incubated for 5 min at rt. The cell suspension was then washed twice with 3 mL PBS and centrifuged with 130×g for 4 min. The supernatant was discarded and the cells were resuspended with 0.5 mL PBS and kept for flow cytometry measurement. For Nile red staining of the 0.5 mL non-fixed cell samples, 50 μL of a ready to use Nile red solution (10 μg/mL) were added per sample. Samples were kept on ice for 5 min. Thereafter, they were washed once with 4 mL PBS (4° C., 250×g for 8 min) and finally resuspended in 400 μL PBS and kept for flow cytometry measurement.
For the viability measurement, 12.5 μL of the ready to use PI solution (10 μg/mL) were added to the 0.5 mL non-fixed cell suspension. After 15 min of incubation on ice, the samples were measured by flow cytometry using a Coulter Epics XL/MCL flow cytometer.
The viability of the cells of each sample was determined by flow cytometry measurement of the PI content at channel 2 (568-590 nm). Cut-off gates for the fluorescence-dependent differentiation between live and dead cells were defined based on the analysis of cell culture medium control samples.
Only samples with a cell viability of >=90% relative to control samples were analyzed for phospholipidosis. For that, each Nile red sample (non-fixed and fixed samples) was measured by flow cytometry at channel 1 (504-541 nm) and channel 4 (660-680 nm).
For each channel, relative Nile red fluorescence intensity of a test sample was calculated compared to control samples and expressed as percentage of control fluorescence intensity. The assessment of the phospholipidogenic potential and the first effect concentration (FEC) of a test compound was done manually based on the fluorescence intensities at both wavelengths for the fixed cells as well as for the non-fixed cells.

Sequence of hERG (Q12809 whole entry): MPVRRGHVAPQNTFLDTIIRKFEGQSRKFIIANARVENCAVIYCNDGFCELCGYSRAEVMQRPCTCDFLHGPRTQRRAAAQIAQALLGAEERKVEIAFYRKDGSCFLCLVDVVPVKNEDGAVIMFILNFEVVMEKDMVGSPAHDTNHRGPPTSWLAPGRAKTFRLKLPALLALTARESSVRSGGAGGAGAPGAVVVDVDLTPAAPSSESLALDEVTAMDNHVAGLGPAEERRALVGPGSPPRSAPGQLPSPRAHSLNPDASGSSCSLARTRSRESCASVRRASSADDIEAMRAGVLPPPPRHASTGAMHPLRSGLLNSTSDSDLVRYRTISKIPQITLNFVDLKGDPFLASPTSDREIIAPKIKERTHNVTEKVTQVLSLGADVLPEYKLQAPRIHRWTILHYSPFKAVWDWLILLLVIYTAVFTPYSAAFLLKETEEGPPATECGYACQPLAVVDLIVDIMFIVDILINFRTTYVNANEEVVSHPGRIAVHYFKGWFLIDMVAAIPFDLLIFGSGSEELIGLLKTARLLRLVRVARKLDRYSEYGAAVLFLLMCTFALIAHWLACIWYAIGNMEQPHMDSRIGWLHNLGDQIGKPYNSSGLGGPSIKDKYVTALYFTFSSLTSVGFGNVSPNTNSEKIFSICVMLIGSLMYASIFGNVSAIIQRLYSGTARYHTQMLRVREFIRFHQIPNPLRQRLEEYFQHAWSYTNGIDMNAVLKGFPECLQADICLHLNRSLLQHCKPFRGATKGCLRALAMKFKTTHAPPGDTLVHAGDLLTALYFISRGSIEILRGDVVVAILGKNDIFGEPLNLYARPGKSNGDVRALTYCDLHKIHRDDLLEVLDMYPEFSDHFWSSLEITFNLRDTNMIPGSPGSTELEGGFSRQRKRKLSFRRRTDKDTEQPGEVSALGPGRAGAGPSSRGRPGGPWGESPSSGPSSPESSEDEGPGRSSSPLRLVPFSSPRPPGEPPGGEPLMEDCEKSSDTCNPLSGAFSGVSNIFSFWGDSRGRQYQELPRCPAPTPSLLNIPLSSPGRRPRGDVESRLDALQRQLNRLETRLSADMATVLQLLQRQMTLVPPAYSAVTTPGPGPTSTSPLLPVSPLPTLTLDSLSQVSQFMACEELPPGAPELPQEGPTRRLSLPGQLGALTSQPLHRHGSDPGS

SMILES	IC50 [2] [nM]	inhibition at 10 µM [1] [%]	IC50 at 48 h [3] [µM]
CO[C@H]1[C@H](C)C[C@@]2(Cc3ccc(C#N)cc3[C@]23N=C(N)N(C2COC2)C3=O)C[C@@H]1C [Example 12]	1.1	11	400
CC[C@@H]1C[C@]2(CC[C@H]1OC)Cc1ccc(C#N)cc1[C@]21N=C(N)N(CC2CCOCC2)C1=O [Example 2]	0.29	22	200
CO[C@H]1[C@H](C)C[C@@]2(Cc3ccc(C#N)cc3[C@]23N=C(N)N(C[C@H]2COCCO2)C3=O)C[C@@H]1C [Example 22]	0.26	9	> 400
CO[C@H]1CC[C@@]2(Cc3ccc(C#N)cc3[C@]23N=C(N)N(CC2(C)COC2)C3=O)C[C@@H]1C [Example 8]	0.49	16	> 200
CO[C@H]1[C@H](C)C[C@@]2(Cc3ccc(C#N)cc3[C@]23N=C(N)N(C[C@@H]2COCCO2)C3=O)C[C@@H]1C [Example 21]	0.48	24	400
CC[C@@H]1C[C@]2(CC[C@H]1OC)Cc1ccc(C#N)cc1[C@]21N=C(N)N(CC2(F)CCOCC2)C1=O [Example 4]	0.28	0	> 400
CO[C@H]1CC[C@@]2(Cc3ccc(C#N)cc3[C@]23N=C(N)N(Cc2ccncn2)C3=O)C[C@@H]1C [Example 9]	1.9	16	400

Further lines, with some results ahead:

IC50 [2] [nM]	SMILES	inhibition at 10 µM [1] [%]	IC50 at 48 h [3] [µM]
0.2	CC[C@@H]1C[C@@]2(Cc3ccc(C#N)cc3[C@]23N=C(N)N(CC(C)(C)F)C3=O)C[C@H](C)[C@H]1OC [Example 26]	8	> 200
0.12	CO[C@H]1[C@H](C)C[C@@]2(Cc3ccc(C#N)cc3[C@]23N=C(N)N(C[C@H]2CCCO2)C3=O)C[C@@H]1C [Example 14]	20	> 200
0.92	CO[C@H]1[C@H](C)C[C@@]2(Cc3ccc(C#N)cc3[C@]23N=C(N)N(CC2COC2)C3=O)C[C@@H]1C [Example 13]	18	200
0.18	CO[C@H]1[C@H](C)C[C@@]2(Cc3ccc(C#N)cc3[C@]23N=C(N)N(CC2(F)CCOCC2)C3=O)C[C@@H]1C [Example 23]	16	> 200
1.02	CO[C@H]1[C@H](C)C[C@@]2(Cc3ccc(C#N)cc3[C@]23N=C(N)N(C[C@@H]2CCO2)C3=O)C[C@@H]1C (stereo in doubt) [Example 18]	17	> 400
0.11	CO[C@H]1[C@H](C)C[C@@]2(Cc3ccc(C#N)cc3[C@]23N=C(N)N(C[C@@H]2CCCO2)C3=O)C[C@@H]1C [Example 15]	11	200
0.89	CO[C@H]1[C@H](C)C[C@@]2(Cc3ccc(C#N)cc3[C@]23N=C(N)N(CC(C)(C)F)C3=O)C[C@@H]1C [Example 17]	12	> 200

Reference: patent US8981112B2, “Inhibitors of β-secretase” (Boehringer Ingelheim International GmbH, priority 2012, dated 2015)
